According to patent publication US11701355B2, “Levosimendan for treating pulmonary hypertension with heart failure with preserved ejection fraction (PH-HFpEF)” (Tenax Therapeutics, Inc., priority 2019, dated 2023):
Where “and” joins values, the source holds several entries; their conditions need not be identical. Equal entries are not always repeated.

Assays:
[1] = tested on: phosphodiesterase-3 (PDE3); settings: in vitro; cited from earlier work
PH-HFpEF patients = assay: HELP Study open-label lead-in phase: 24-hour levosimendan infusion, right heart catheterization at rest and 25 watt exercise; assay type: in vivo, human
From the text: Enrolled PH-HFpEF subjects receive a lead-in 24-hour levosimendan infusion to determine their hemodynamic response and eligibility for the double-blind phase of the study. A total of 36 “responders” are randomized in the double-blind, placebo-controlled phase. “Responders” are identified as those subjects with a ≥4 mmHg reduction in PCWP during bicycle exercise (25 watts) and no more than a 10% decrease in cardiac index between the baseline measurements and repeated measurements following the initial infusion.
Study drug is administered via i.v. infusion over 24 hours weekly through Week 5 via a PICC line. Infusions (Week 2-5) are done in the subject's home by a study nurse. Patients return to the study site for a visit between the Week 3 and Week 4 infusions for assessment of subject safety/response and need for dose adjustment. Each subject is to return on Week 6 for assessment of efficacy and safety on study drug. A right heart catheter will be inserted to obtain hemodynamic measurements at rest and exercise at baseline, the following day after the lead-in 24-hour infusion, and during Week 6.
During the Lead-in phase, levosimendan, supplied as a concentrated solution (2.5 mg/mL), is mixed with diluent and administered intravenously at 0.10 μg/kg/min for 24 hours +/−30 min.
Visits during the Lead-In phase of the trial require a subject to be hospitalized for the entire infusion period, which at a minimum will last 24 hours. Once the infusion is complete, hemodynamic measurements are collected to ensure subject eligibility. Visits for Week 2 through Week 6 are calculated based on the date of the Lead-in infusion.
During the Lead-in Infusion (Day 0) the following procedures are performed: Measure vital signs (BP, PR, respiratory rate, temperature), venous sheath placement for right heart catheterization (The sheath will remain following the baseline study, and the patient is hospitalized where they receive the 24-hour levosimendan infusion (preferably through the venous sheath). The sheath is then used for access for the right heart catheterization study following the 24-hour levosimendan infusion, and then removed), right heart catheterization measurements: baseline (prior to levosimendan infusion) and post 24-hour infusion to establish qualifying baseline hemodynamics at rest and exercise and to establish qualifying response to levosimendan during exercise, assess adverse events, assess concomitant medications and/or procedures, pharmacokinetic sampling (to be taken at the end of infusion: 24+/−2 hours), genotyping sampling (to be taken at the end of infusion: 24+/−2 hours). […] A PICC line is placed in patients that meet eligibility criteria and who are randomized into the Double-Blind phase of the study.

[2] = average of 30 patients, 25 watts exercise
[3] = average of 30 patients, rest legs down
[4] = first 30 randomized patients, 25 watts exercise
[5] = first 30 randomized patients, rest
[6] = individual patients, after 24-hour lead-in infusion, 25 watts exercise
[7] = individual patients, after 24-hour lead-in infusion, rest legs down
[8] = individual patients, post vs pre, 25 watts exercise
[9] = individual patients, post vs pre, rest legs down

C[C@@H]1CC(=O)NN=C1c1ccc(NN=C(C#N)C#N)cc1 [levosimendan, Levosimendan]
PDE3/PDE4 inhibition ratio [1]: 10,000 | patients who exhibited a ≥4 mmHg decrease of PCWP (PH-HFpEF patients; acute (24 hours) open-label levosimendan, n=44): 85% | Exercise CO Change Avg (PH-HFpEF patients; [2]): 0.6 L/min | PCWP Exercise Change Avg (PH-HFpEF patients; [2]): −7.53 mmHg | RAP (Exercise) Change Avg (PH-HFpEF patients; [2]): −4.97 mmHg | mPAP Exercise Change Avg (PH-HFpEF patients; [2]): −5.1 mmHg | PCWP-Rest (down) Change Avg (PH-HFpEF patients; [3]): −5.800 mmHg | RAP (Rest-down) Change Avg (PH-HFpEF patients; [3]): −4.83 mmHg | Rest (down) CO Change Avg (PH-HFpEF patients; [3]): 0.33 L/min | mPAP Rest (down) Change Avg (PH-HFpEF patients; [3]): −5.4 mmHg | increase of cardiac output during 25 watts of exercise, average (PH-HFpEF patients; [4]): 0.60 L/min | reduction of mean pulmonary arterial pressure during 25 watts of exercise, average (PH-HFpEF patients; [4]): 5.1 mmHg | reduction of pulmonary capillary wedge pressure during 25 watts of exercise, average (PH-HFpEF patients; [4]): 7.53 mmHg | reduction of right atrial pressure during 25 watts of exercise, average (PH-HFpEF patients; [4]): 4.97 mmHg | increase of cardiac output during rest, average (PH-HFpEF patients; [5]): 0.33 L/min | reduction of mean pulmonary arterial pressure during rest, average (PH-HFpEF patients; [5]): 5.4 mmHg | reduction of pulmonary capillary wedge pressure during rest, average (PH-HFpEF patients; [5]): 5.8 mmHg | reduction of right atrial pressure during rest, average (PH-HFpEF patients; [5]): 4.83 mmHg | pulmonary capillary wedge pressure during rest after levosimendan, average (PH-HFpEF patients; first 30 randomized patients, rest, baseline 23.4): 17.6 mmHg | cardiac output during rest after levosimendan, average (PH-HFpEF patients; first 30 randomized patients, baseline 5.1): 5.5 L/min | cardiac output during 25 watts of exercise after levosimendan, average (PH-HFpEF patients; first 30 randomized patients, baseline 6.7): 7.4 L/min | right atrial pressure during rest after levosimendan, average (PH-HFpEF patients; first 30 randomized patients, baseline 16.2): 11.3 mmHg | right atrial pressure during 25 watts of exercise after levosimendan, average (PH-HFpEF patients; first 30 randomized patients, baseline 27.9): 23.0 mmHg | pulmonary capillary wedge pressure during 25 watts of exercise after levosimendan, average (PH-HFpEF patients; first 30 randomized patients, baseline 33.2): 25.7 mmHg | mean pulmonary arterial pressure during rest after levosimendan, average (PH-HFpEF patients; first 30 randomized patients, baseline 42.4): 37.0 mmHg | mean pulmonary arterial pressure during 25 watts of exercise after levosimendan, average (PH-HFpEF patients; first 30 randomized patients, baseline 58.3): 53.3 mmHg | Exercise CO Post (PH-HFpEF patients; [6]): 3.55 l/min and 3.25 l/min and 5.5 l/min and 5.05 l/min and 9.1 l/min (2×) and 4.68 l/min and 5.725 l/min and 5.9 l/min and 9 l/min and 7.65 l/min and 11.3 l/min and 7.9 l/min and 7.1 l/min and 12.8 l/min and 5.2 l/min and 8.0 l/min and 10.5 l/min and 4.2 l/min and 13.9 l/min and 7.2 l/min and 10.6 l/min and 11.1 l/min and 5.4 l/min and 6.5 l/min (2×) and 4.23 l/min and 6.93 l/min and 6.05 l/min and 7.7 l/min | PCWP Exercise Post (PH-HFpEF patients; [6]): 27 mmHg and 33 mmHg (2×) and 23 mmHg (2×) and 42 mmHg and 35 mmHg and 20 mmHg (2×) and 15 mmHg (2×) and 31 mmHg (2×) and 18 mmHg (4×) and 28 mmHg (4×) and 30 mmHg and 22 mmHg and 24 mmHg and 19 mmHg (2×) and 25 mmHg and 29 mmHg and 34 mmHg and 37 mmHg | RAP (Exercise) Post (PH-HFpEF patients; [6]): 34 mmHg and 17 mmHg (2×) and 10 mmHg and 20 mmHg (4×) and 16 mmHg (3×) and 24 mmHg and 36 mmHg and 18 mmHg and 12 mmHg (3×) and 22 mmHg and 29 mmHg (2×) and 25 mmHg (3×) and 28 mmHg (2×) and 19 mmHg and 38 mmHg (2×) and 37 mmHg and 26 mmHg | mPAP Exercise Post (PH-HFpEF patients; [6]): 52 mmHg (4×) and 47 mmHg (3×) and 67 mmHg and 48 mmHg and 40 mmHg and 80 mmHg and 57 mmHg and 38 mmHg (3×) and 35 mmHg and 50 mmHg and 55 mmHg and 51 mmHg (2×) and 58 mmHg and 27 mmHg and 60 mmHg and 66 mmHg and 36 mmHg and 81 mmHg and 68 mmHg (2×) and 75 mmHg and 62 mmHg | RAP (Rest-down) Post (PH-HFpEF patients; [7]): 17 mmHg and 5 mmHg and 4 mmHg and 12 mmHg (6×) and 7 mmHg and 18 mmHg (2×) and 3 mmHg and 8 mmHg (2×) and 9 mmHg (2×) and 13 mmHg (2×) and 10 mmHg (3×) and 11 mmHg (2×) and 15 mmHg (2×) and 1 mmHg and 14 mmHg and 19 mmHg and 20 mmHg | Rest (down) CO Post-Levo (PH-HFpEF patients; [7]): 3.0 l/min and 3.2 l/min and 4.5 l/min and 3.8 l/min (2×) and 6.9 l/min and 6.2 l/min and 4.2 l/min and 5.2 l/min and 6.5 l/min (2×) and 5.3 l/min (3×) and 5.6 l/min and 7.6 l/min and 4.1 l/min and 6.0 l/min and 8.6 l/min and 5.9 l/min and 4.3 l/min and 6.4 l/min and 4.0 l/min and 11.0 l/min and 4.7 l/min and 4.4 l/min and 3.9 l/min and 5.4 l/min and 5.8 l/min and 7.0 l/min | mPAP Rest (down) Post-Levo (PH-HFpEF patients; [7]): 45 mmHg and 27 mmHg and 35 mmHg (2×) and 25 mmHg and 21 mmHg (2×) and 65 mmHg and 38 mmHg and 28 mmHg (2×) and 37 mmHg (2×) and 30 mmHg (2×) and 42 mmHg and 41 mmHg and 26 mmHg (2×) and 46 mmHg and 24 mmHg (2×) and 29 mmHg and 34 mmHg and 32 mmHg and 62 mmHg and 57 mmHg (2×) and 59 mmHg and 49 mmHg | PCWP-Rest (down) Post-Levo (PH-HFpEF patients; individual patients, n=30 responders, after 24-hour lead-in infusion, rest legs down): 17 mmHg (6×) and 19 mmHg (2×) and 12 mmHg (2×) and 21 mmHg (3×) and 18 mmHg and 23 mmHg (2×) and 14 mmHg (3×) and 16 mmHg (2×) and 29 mmHg and 8 mmHg (2×) and 22 mmHg and 20 mmHg (2×) and 15 mmHg and 13 mmHg and 27 mmHg | PCWP-Rest (down) Change (PH-HFpEF patients; individual patients, post vs pre levosimendan lead-in infusion, rest legs down): −3 mmHg (5×) and −8 mmHg and −11 mmHg (2×) and 1 mmHg and −12 mmHg (2×) and 3 mmHg and −6 mmHg (2×) and −18 mmHg and −13 mmHg (2×) and −2 mmHg (3×) and −5 mmHg (2×) and 2 mmHg and 0 mmHg and −10 mmHg and −9 mmHg and −14 mmHg and −1 mmHg (2×) and −4 mmHg | Exercise CO Change (PH-HFpEF patients; [8]): 0.4 l/min (2×) and 0.0 l/min (2×) and 0.8 l/min (3×) and −0.3 l/min (2×) and −0.2 l/min (2×) and 0.3 l/min and 1.7 l/min (2×) and 0.2 l/min (2×) and 1.8 l/min (2×) and 1.9 l/min and −1.7 l/min and 4.8 l/min and 1.5 l/min and 0.1 l/min and −0.5 l/min (2×) and −1.0 l/min and 0.9 l/min and 1.0 l/min and 1.4 l/min and 1.3 l/min | PCWP Exercise Change (PH-HFpEF patients; [8]): −8 mmHg (3×) and −7 mmHg (4×) and −13 mmHg and −5 mmHg (7×) and −10 mmHg and −4 mmHg (3×) and −22 mmHg and −14 mmHg (2×) and −6 mmHg (6×) and −9 mmHg (2×) | RAP (Exercise) Change (PH-HFpEF patients; [8]): −8 mmHg (5×) and −4 mmHg and −3 mmHg (3×) and −6 mmHg (2×) and −12 mmHg and −11 mmHg and 1 mmHg (3×) and −18 mmHg and −9 mmHg and −5 mmHg (2×) and −14 mmHg and −2 mmHg (3×) and 3 mmHg and 6 mmHg and 0 mmHg (2×) and −15 mmHg and −1 mmHg | mPAP Exercise Change (PH-HFpEF patients; [8]): −7 mmHg and −3 mmHg (4×) and −15 mmHg (2×) and −5 mmHg (2×) and 2 mmHg and −22 mmHg and −13 mmHg (2×) and 4 mmHg (2×) and −8 mmHg (2×) and −9 mmHg and 12 mmHg and −4 mmHg (2×) and −2 mmHg and 1 mmHg (3×) and 6 mmHg and −11 mmHg and −12 mmHg (2×) and −6 mmHg | RAP (Rest-down) Change (PH-HFpEF patients; [9]): −3 mmHg (3×) and −4 mmHg (5×) and 0 mmHg (3×) and −5 mmHg (6×) and 1 mmHg and −23 mmHg and −1 mmHg and −7 mmHg (3×) and −6 mmHg (2×) and −2 mmHg (2×) and −9 mmHg (2×) and −8 mmHg | Rest (down) CO Change (PH-HFpEF patients; [9]): 0.17 l/min and 0.23 l/min (2×) and 0.27 l/min and 0.43 l/min and 1.06 l/min (2×) and 0.05 l/min and 0.62 l/min and 1.40 l/min and −0.07 l/min and 0.67 l/min and 2.03 l/min and −0.97 l/min and 1.03 l/min and 1.60 l/min and 0.00 l/min and 0.20 l/min and −0.53 l/min (2×) and 0.07 l/min and −0.47 l/min and 0.13 l/min and −1.07 l/min and −1.87 l/min and −0.30 l/min and 0.85 l/min and 1.50 l/min and 1.20 l/min and 0.87 l/min | mPAP Rest (down) Change (PH-HFpEF patients; [9]): −5 mmHg (2×) and −8 mmHg (2×) and −11 mmHg (2×) and 1 mmHg and −10 mmHg (2×) and 5 mmHg (3×) and −2 mmHg (2×) and −22 mmHg and −12 mmHg (2×) and 2 mmHg (2×) and −9 mmHg (4×) and 3 mmHg and −6 mmHg and −4 mmHg and −13 mmHg and −14 mmHg and 6 mmHg and 0 mmHg
